Activity calls are given as the source filed them.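 Rule for the calls: active = EC50 no more than a set limit of log units above the highest dose; inactive = the rest.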
Biological target: S. pyogenes SKKanGAS, kanamycin survival, BacTiterGlo, 6 h
Assay: S. pyogenes SKKanGAS kanamycin growth inhibitors – SKKanGAS strain, luminescence, dose confirmation, streptokinase promoter inhibitor project, dose response (AID 1902);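 note: lower survival reflects blocked streptokinase promoter driving kanamycin resistance gene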

| SMILES | EC50 |
| --- | --- |
| N#Cc1ccc(NC(=O)Nc2ccc(Cl)cc2)cc1 | 6.03 µM |
| CC(C)=CCc1cc([C@@H]2COc3c(ccc4c3C=CC(C)(C)O4)C2)c(O)cc1O | 2.94 µM |
| Cc1cc(C)c(C)c(S(=O)(=O)N2CCC(C(=O)NNC(=O)c3ccccc3O)CC2)c1C | 11.8 µM |
| CCCCC[n+]1ccn(C2=C([O-])c3ccccc3C(=O)/C2=N\S(=O)(=O)c2ccccc2)c1 | 2.58 µM |
| N=c1c(-c2nc3ccccc3[nH]2)cc(C(=O)c2cccs2)nn1-c1ccccc1 | 1.89 µM |
| Cc1cc(C)c2ccc(NN)nc2c1O | 6.08 µM |
| CC1CC(=O)c2c(cc3c(-c4c(O)cc(O)c5c(O)c6c(cc45)OC(C)CC6=O)c(O)cc(O)c3c2O)O1 (configuration not stated) | 0.501 µM |
| Cc1cc([N+](=O)[O-])cc(/C=N/n2c(C)nc3ccccc3c2=O)c1O | 4.07 µM |
| CCOC(=O)/C(=N\Nc1ccc(Cl)cc1)c1csc(Nc2ccccc2)n1 | 1.77 µM |
| CN(C)CCCNc1cc(C(C)(C)C)nc2c(-c3ccc(Cl)cc3)cnn12 | 1.94 µM |
| COc1cc([N+](=O)[O-])cc(/C=N/NC(=O)c2cccnc2)c1O | 2.64 µM |
| Nc1nc(CN2CCN(c3ccc(F)cc3)CC2)nc(N2CCCc3ccccc32)n1 | 0.178 µM |
| O=C(/C(=N\Nc1ccc([N+](=O)[O-])cc1)Sc1nnnn1-c1ccccc1)c1ccccc1 | 5.46 µM |
| CC1(C)CC(=O)C(C2C3=C(CC(C)(C)CC3=O)Oc3c(Br)cc(Br)cc32)=C(O)C1 (configuration not stated) | 4.06 µM |
| Cc1cccc(N=C2NN=C(c3c(C)[nH]c4ccccc34)CS2)c1 | 3.02 µM |
| COc1cnc(-c2ccccn2)nc1Oc1ccc(C(C)(C)C)cc1 | 7.68 µM |
| Cc1nn(C)c(C(=O)Nc2ccc(S(=O)(=O)NC34CC5CC(CC(C5)C3)C4)cc2)c1Br | 4.9 µM |
| O=c1cc(/N=C/c2coc3c(ccc4ccccc43)c2=O)[nH]c(=S)[nH]1 | 1.53 µM |
| COc1ccccc1OCCCn1c(C)c(C#N)c2ccccc21 | 7.08 µM |
| COc1ccc(Cc2n[nH]c(=S)n2NC(=O)Nc2ccc(Cl)c(Cl)c2)cc1 | 4.08 µM |
| c1ccc(OCc2nc3c4c(ncn3n2)-c2ccccc2CC42CCCC2)cc1 | 11.7 µM |
| Cc1cccc2sc(NNC(=O)c3ccc(S(=O)(=O)N4CCCC(C)C4)cc3)nc12 (configuration not stated) | 0.31 µM |
| Cn1c(=O)c(C(=O)NNC(=O)c2ccccc2Br)c(O)c2ccccc21 | 7.51 µM |
| CCOc1ccc(-c2nnc(NC(=O)c3ccc(OCC(C)C)c(OC)c3)o2)cc1 | 0.347 µM |
| Cc1ccc(OCCn2c(=S)[nH]c3ccccc32)c(C(C)C)c1 | 2.13 µM |
| CNC(=O)c1c(NC(=O)c2ccc(N3C(=O)CCC3=O)cc2)sc2c1CCC(C)C2 (configuration not stated) | 15.7 µM |

| SMILES | EC50 |
| --- | --- |
| Nc1sc(-c2ccccc2)cc1C(=O)N/N=C/c1ccc(Cl)cc1 | 5.73 µM |
| Clc1ccc(CO/N=C(\Cn2ccnc2)c2ccc(Cl)cc2Cl)c(Cl)c1 | 1.95 µM |
| O=C(c1cc(-c2ccc(Br)cc2)nc2ccccc12)N1CCN(c2ccccc2O)CC1 | 6.44 µM |
| N=C(N)c1ccc(/C=C/c2ccc(C(=N)N)cc2O)cc1 | 3.34 µM |
| Cc1cc(C)cc(-n2c(C)cc(/C=C3\C(=N)N4N=C(CC(C)C)SC4=NC3=O)c2C)c1 | 2.67 µM |
| CCN(CC)c1ccc(/C=N/Nc2nc3ccccc3[nH]2)c(O)c1 | 3.17 µM |
| COc1ccc(C(=O)/C=C/c2ccc(-c3ccccc3)cc2)cc1CSCC(=O)O | 5.51 µM |
| O=C1CCCc2oc3c(cc(NS(=O)(=O)c4ccc5c6c(cccc46)C(=O)N5)c4ccccc43)c21 | 4.02 µM |
| COc1ccc(NC(=O)CSc2nc3nc(-c4cccs4)cc(C(F)(F)F)c3c(=O)[nH]2)c(OC)c1 | 7.42 µM |
| CC1=C(C(=O)Nc2ccc([N+](=O)[O-])cc2)C(c2cccc(C(F)(F)F)c2)NC(=S)N1c1ccccc1 (configuration not stated) | 4.02 µM |
| Cc1nc(N2CCC(C)CC2)c2c(C)c(C(=O)Nc3ccccc3C(F)(F)F)sc2n1 | 6.04 µM |
| CCCCNC(=O)c1onc(CSc2ccc(C(C)C)cc2)c1C(=O)O | 4.13 µM |
| C=CC1=C(C(=O)O)N2C(=O)[C@@H](NC(=O)/C(=N/OCC(=O)O)c3csc(N)n3)[C@H]2SC1 | < 0.06 µM |
| O=C(COC(=O)Cc1cn2ccsc2n1)Nc1nc2ccccc2s1 | 2.51 µM |
| CC1CC(C)CN(Cc2nc(N)nc(Nc3ccc4ccccc4c3)n2)C1 (configuration not stated) | 1.41 µM |
| O=C(N/N=C(\c1ccccc1)c1cccnc1)c1cccc(F)c1 | 3.49 µM |
| Cc1ccc(-c2csc(NC(=O)c3ccc([N+](=O)[O-])o3)n2)cc1 | 3.42 µM |
| O=C(O)C(c1ccccc1)N1C(=O)/C(=C\c2ccc(-c3ccc(Br)cc3)o2)SC1=S (configuration not stated) | 1.27 µM |
| COc1ccc(-c2nn(-c3ccccc3)cc2/C=C/C(=O)N2CCN(c3ccccn3)CC2)cc1 | 4.69 µM |
| Cc1cc(C)c(NC(=O)c2oc3ccccc3c2COc2ccccc2)c(C)c1 | 14.8 µM |
| O=C(NC12CC3CC(CC(C3)C1)C2)c1ccc(-c2ccc(Br)cc2)o1 | 11 µM |
| CC(C)Nc1cc(C(C)(C)C)nc2c(-c3ccccc3)cnn12 | 4.42 µM |
| Cc1ccccc1N1CCN(S(=O)(=O)c2nnc(NC(=O)c3ccco3)s2)CC1 | 4.46 µM |
| OCCN(CCO)c1ccc(C(c2ccccc2Cl)c2ccc(N(CCO)CCO)cc2Cl)c(Cl)c1 | 5.06 µM |
| Cc1cccc(C(=O)NCC(=O)N2CCOCC2)c1 | > 15 µM (inactive) |
| N#C/C(=C(/O)c1ccc2c(c1)OCO2)c1nc2cc(C(F)(F)F)ccc2s1 | 2.43 µM |
